From US8771953B2, “Evaluation of the potential risk of drug induced mood disturbance and suicide: use of a dedicated platform” (Biocortech, priority 2008, dated 2014)

System: 5-HT2cR mRNA
Assay: Editing profile of 5-HT2cR mRNA isoforms by CE-SSCP (nested PCR) in SH-SY5Y cells; enzyme activity indexes worked out from the profile
Assay type: cell-based, human
Conditions: SH-SY5Y cells, 48 hours, 10 μM

Compound: C[C@H](NC(=O)C(C)(C)Oc1ccc(C(F)(F)F)cn1)[C@@H](Cc1ccc(Cl)cc1)c1cccc(C#N)c1 [Taranabant]
- alteration of 5-HT2cR mRNA editing compared with that observed after INFα treatment (component analysis, FIG. 4): similarly altered
